The numbers were not newly measured in patent US20220040100A1, “Stable Acyclovir Sodium Parenteral Formulation” (RK Pharma Solutions LLC, priority 2020, published 2022), which cites them from elsewhere.

The conditions of the data set: lyophilized powder reconstituted with Sterile Water for Injection, 50 mg/mL of acyclovir.

Molecules are shown by their SMILES. Counter-ions that a name gives are not always drawn.

For `Nc1nc2c(ncn2COCCO)c(=O)[nH]1` [Acyclovir sodium, 2-amino-1,9-dihydro-9-[(2-hydroxyethoxy)methyl]-6H-purin-6-one monosodium salt], the “pH of the reconstituted solution” value is “approximately 11”.
